# Activity calls are given as the source filed them.
# Legend:
# [1] = tested on: Streptococcus sp. 'group A'; test: Streptococcus pyogenes SK(-)GAS viability under kanamycin – luminescence, BacTiterGlo, confirmation, counter-screen for streptokinase expression inhibitor project, dose response (AID 1900); type: functional, organism-based
# [2] = biological target: T1, Streptokinase A (Streptococcus pyogenes serotype M1, UniProt P10520); test: viability-normalized secreted streptokinase activity reduction – plasminogen activation absorbance, OD405, dose response (AID 1914); type: functional, Streptococcus pyogenes M1 GAS;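 note: secreted streptokinase activity via plasminogen activation per viability signal from cell pellet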
# T1 sequence (P10520 whole entry): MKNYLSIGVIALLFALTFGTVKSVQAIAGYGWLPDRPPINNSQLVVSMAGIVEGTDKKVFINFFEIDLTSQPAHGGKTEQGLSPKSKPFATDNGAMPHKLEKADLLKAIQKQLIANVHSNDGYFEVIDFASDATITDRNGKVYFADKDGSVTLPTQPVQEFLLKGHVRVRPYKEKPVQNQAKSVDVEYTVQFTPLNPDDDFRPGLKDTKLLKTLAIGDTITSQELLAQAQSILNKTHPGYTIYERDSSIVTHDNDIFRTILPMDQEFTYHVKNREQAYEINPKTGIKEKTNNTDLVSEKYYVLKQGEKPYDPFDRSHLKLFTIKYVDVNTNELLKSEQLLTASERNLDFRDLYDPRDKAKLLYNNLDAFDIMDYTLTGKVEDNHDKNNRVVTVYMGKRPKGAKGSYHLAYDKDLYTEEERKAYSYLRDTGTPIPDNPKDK
# [3] = biological target: Ion channel NompC (Danio rerio, UniProt Q7T1G6); test: Dose response cell-based high-throughput screening assay for agonists of the transient receptor potential channel N1 (TRPN1). [Related pubchem assays (depositor defined):AID1424, AID1448]; type: functional
# [4] = CCR5-tropic HIV-1 fusion blockers – cell-based, CCR5-tropic Env, dose response (AID 2279); type: functional
# [5] = biological target: T2, Mucolipin-3 (Homo sapiens, UniProt Q8TDD5); test: Fluorescence counterscreen assay for […] agonists: dose response cell-based high-throughput screening assay to identify agonists of the transient receptor potential channel ML3 (TRPML3). [Related pubchem assays: 1424, 1448 ]; type: functional
# T2 sequence (Q8TDD5 whole entry): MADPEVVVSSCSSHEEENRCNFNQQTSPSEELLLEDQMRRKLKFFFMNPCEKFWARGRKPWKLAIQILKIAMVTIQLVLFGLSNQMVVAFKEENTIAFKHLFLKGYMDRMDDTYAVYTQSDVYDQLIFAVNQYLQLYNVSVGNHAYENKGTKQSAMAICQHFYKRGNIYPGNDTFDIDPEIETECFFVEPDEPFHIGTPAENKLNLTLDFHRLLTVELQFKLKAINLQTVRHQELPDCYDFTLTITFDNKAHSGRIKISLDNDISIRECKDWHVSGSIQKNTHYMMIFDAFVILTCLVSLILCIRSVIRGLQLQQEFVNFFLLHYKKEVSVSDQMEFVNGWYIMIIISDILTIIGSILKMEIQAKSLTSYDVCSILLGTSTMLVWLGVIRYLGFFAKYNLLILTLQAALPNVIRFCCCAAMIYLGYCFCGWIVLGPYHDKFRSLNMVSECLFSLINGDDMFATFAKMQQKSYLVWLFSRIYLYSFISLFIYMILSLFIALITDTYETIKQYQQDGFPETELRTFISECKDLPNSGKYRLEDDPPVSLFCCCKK
# [6] = tested on: Streptococcus; test: GAS UMAA2166 growth inhibition – luminescence, BacTiterGlo, counter-screen for streptokinase expression inhibitor project, dose response (AID 1915); type: functional, organism-based;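 note: potency for reduction of bacterial viability or growth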
# [7] = Luminescence Cell-Based Dose Retest to Confirm Inhibitors of Cancer Stem Cells. [Related pubchem assays (depositor defined):AID2717, AID2721]; type: functional; conditions: Homo sapiens
# [8] = reduction of Shn3 3'UTR-driven luciferase in osteoblasts – cell-based, Clone20 osteoblasts, firefly luciferase, cherry-picked, dose response (AID 624132); type: functional;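 note: firefly luciferase luminescence from reporter carrying the Shn3 3'UTR in osteoblasts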
# [9] = loss of viability in HepG2 cells – cell-based, CellTiter-Glo, cherry-picked, cytotoxicity control for Shn3 inhibitor project, dose response (AID 624134); type: functional
# [10] = non-specific 3'UTR reporter inhibition in Clone20-Shn3RL – cell-based, Renilla luciferase, cherry-picked, counter-screen for Shn3 inhibitor project, dose response (AID 624133); type: functional
# [11] = THP-1 cell cytotoxicity, dose response, cytotoxicity control for non-replicating M. tuberculosis project (AID 489025); type: functional
# [12] = Vero E6 cell cytotoxicity, dose response, cytotoxicity control for non-replicating M. tuberculosis project, secondary assay (AID 492998); type: functional, VeroE6; conditions: Vero C1008
# [13] = biological target: Microphthalmia-associated transcription factor (Homo sapiens, UniProt O75030); test: reducers of TRPM1 reporter luminescence, concentration series – cell-based, SK-MEL-5, cherry-picked, set 3, MITF inhibitor project, dose response (AID 493073); type: functional;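 note: SK-MEL-5 melanoma cells with luciferase driven by the MITF target TRPM1 promoter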
# [14] = cells; type: functional
# [15] = biological target: DNA dC->dU-editing enzyme APOBEC-3G (Homo sapiens, UniProt Q9HC16); test: Dose Response confirmation of small molecule APOBEC3G DNA Deaminase Inhibitors via a fluorescence-based single-stranded DNA deaminase assay. [Related pubchem assays (depositor defined):AID493012, AID493028]; type: functional
# [16] = biological target: Eukaryotic translation initiation factor 4E (Mus musculus, UniProt P63073); test: blockers of eIF4G binding by eIF4E – biochemical, TR-FRET, dose response (AID 855); type: functional;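 note: potency for disrupting eIF4E binding to eIF4GI seen as loss of FRET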
# [17] = biological target: T3, Carboxy-terminal domain RNA polymerase II polypeptide A small phosphatase 1 (Homo sapiens, UniProt Q9GZU7); test: CTDSP1 inhibitors, concentration-response, biochemical, absorbance readout, ultra-high-throughput screen actives (AID 540297); type: functional
# T3 sequence (Q9GZU7 whole entry): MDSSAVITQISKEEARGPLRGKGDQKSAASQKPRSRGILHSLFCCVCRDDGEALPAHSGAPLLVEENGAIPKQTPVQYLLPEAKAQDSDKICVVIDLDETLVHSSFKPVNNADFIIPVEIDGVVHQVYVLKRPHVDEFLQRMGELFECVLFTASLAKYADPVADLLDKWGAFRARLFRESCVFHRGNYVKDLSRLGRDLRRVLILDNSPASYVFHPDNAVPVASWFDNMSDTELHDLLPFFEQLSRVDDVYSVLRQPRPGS
# [18] = decrease of insulin promoter-GFP reporter – imaging, high-content screening, mouse beta cells (AID 1628); type: functional; conditions: MIN6
# [19] = cells; type: functional, cell-based
# [20] = MIN6 cell viability loss – mouse insulinoma, cytotoxicity control, dose response (AID 2122); type: functional;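 note: confirmatory high-throughput counterscreen run to flag cytotoxic compounds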
# [21] = Trypanosoma cruzi growth suppression in host cells – NIH3T3 host cells, beta-gal luminescence, confirmation (AID 2044); type: functional, cell-based;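 note: intracellular parasites grown in NIH/3T3 mouse fibroblasts as host cells; luminescent beta-galactosidase reporter signal from transgenic T. cruzi replicating inside host cells; inhibitors lower the luminescence signal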
# [22] = cells; type: functional, cell-based; remark: listed apart in the source
# [23] = biological target: Troponin, cardiac muscle (Homo sapiens, UniProt P19429+P45379+P63316); test: Fluorescence-based biochemical high throughput dose response assay for activators of the calcium sensitivity of cardiac Regulated Thin Filaments (RTF). [Related pubchem assays (depositor defined):AID493008, AID493018, AID504382, AID504383]; type: protein-complex assay
# [24] = biological target: Alkaline phosphatase, placental type (Homo sapiens, UniProt P05187); test: human placental alkaline phosphatase inhibition – biochemical, luminescence, confirmation (AID 1512); type: functional
# [25] = biological target: T4, Alkaline phosphatase, tissue-nonspecific isozyme (Homo sapiens, UniProt P05186); test: potency against alkaline phosphatase TNAP – biochemical, luminescent, dose response, SAR follow-up (AID 1056)
# T4 sequence (P05186 whole entry): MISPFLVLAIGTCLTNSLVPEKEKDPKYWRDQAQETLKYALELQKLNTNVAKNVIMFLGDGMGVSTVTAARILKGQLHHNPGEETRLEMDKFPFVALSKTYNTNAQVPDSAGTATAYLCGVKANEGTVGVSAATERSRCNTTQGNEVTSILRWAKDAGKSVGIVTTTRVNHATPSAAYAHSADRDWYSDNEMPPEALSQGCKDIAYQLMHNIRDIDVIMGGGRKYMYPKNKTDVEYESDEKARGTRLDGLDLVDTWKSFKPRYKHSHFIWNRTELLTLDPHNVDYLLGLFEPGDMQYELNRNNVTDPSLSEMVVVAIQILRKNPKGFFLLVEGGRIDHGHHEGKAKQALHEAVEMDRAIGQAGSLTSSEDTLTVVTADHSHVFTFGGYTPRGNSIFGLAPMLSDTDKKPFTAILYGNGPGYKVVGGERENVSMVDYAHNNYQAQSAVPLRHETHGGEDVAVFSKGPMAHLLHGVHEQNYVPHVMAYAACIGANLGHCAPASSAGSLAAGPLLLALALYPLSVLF
# [26] = biological target: T5, Caspase-3 (Homo sapiens, UniProt P42574); test: activation of caspase-3 zymogen – biochemical, absorbance, dose response (AID 489014)
# T5 sequence (P42574 whole entry): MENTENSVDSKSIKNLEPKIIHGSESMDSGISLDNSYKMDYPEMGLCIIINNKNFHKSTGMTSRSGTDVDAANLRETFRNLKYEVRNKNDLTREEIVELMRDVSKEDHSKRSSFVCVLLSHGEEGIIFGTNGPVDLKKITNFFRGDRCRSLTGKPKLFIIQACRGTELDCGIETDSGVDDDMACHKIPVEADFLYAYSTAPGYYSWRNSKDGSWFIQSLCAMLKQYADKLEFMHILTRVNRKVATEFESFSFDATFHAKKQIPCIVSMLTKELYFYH
# [27] = biological target: Caspase-7 (Homo sapiens, UniProt P55210); test: activation of caspase-7 zymogen – biochemical, absorbance, counter-screen for procaspase-3 activator project, dose response (AID 489013)
# [28] = biological target: Mannose-6-phosphate isomerase (Homo sapiens, UniProt P34949); test: MPI inhibition at elevated mannose 6-phosphate – biochemical, fluorescence intensity, high mannose 6-phosphate, primary screen (AID 1220)
# [29] = biological target: T6, Bcl-2-related protein A1 (Mus musculus, UniProt Q07440); type: functional;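 note: confirmatory dose–response counterscreen on Bfl-1, used to check hits from a UBC13 polyubiquitin inhibitor campaign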
# T6 sequence (Q07440 whole entry): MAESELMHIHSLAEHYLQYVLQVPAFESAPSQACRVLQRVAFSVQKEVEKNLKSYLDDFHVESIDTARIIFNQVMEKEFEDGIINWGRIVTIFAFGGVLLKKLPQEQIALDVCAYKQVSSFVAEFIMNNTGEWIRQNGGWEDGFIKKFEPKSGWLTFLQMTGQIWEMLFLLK
# [30] = biological target: T7, Ubiquitin-conjugating enzyme E2 N (Homo sapiens, UniProt P61088); type: functional
# T7 sequence (P61088 whole entry): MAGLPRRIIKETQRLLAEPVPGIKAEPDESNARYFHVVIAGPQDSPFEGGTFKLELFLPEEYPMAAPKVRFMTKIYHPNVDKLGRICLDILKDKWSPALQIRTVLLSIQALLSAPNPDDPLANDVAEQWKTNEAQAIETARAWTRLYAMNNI
# [31] = biological target: T7, Ubiquitin-conjugating enzyme E2 N; type: functional; remark: listed apart in the source
# [32] = biological target: G-protein coupled receptor 55 (Homo sapiens, UniProt Q9Y2T6); test: inhibition of LPI-stimulated GPR55 beta-arrestin translocation – imaging, U2OS, beta-arrestin-GFP, LPI agonist, primary screen (AID 2013); type: functional;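 note: antagonist potency measured as reduced agonist-driven arrestin aggregation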
# G-protein coupled receptor 55, sequence (Q9Y2T6 whole entry): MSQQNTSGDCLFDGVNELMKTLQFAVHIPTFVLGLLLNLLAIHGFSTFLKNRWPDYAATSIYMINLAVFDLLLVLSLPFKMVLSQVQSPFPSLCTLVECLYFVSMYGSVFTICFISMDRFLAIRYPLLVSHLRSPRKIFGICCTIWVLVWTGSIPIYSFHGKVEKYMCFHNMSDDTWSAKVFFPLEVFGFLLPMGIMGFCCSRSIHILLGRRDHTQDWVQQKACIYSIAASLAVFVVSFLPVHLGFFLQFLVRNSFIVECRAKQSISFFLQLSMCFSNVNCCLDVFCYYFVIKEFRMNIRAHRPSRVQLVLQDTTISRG
# Caspase-7, sequence (P55210 24-198 limits assumed): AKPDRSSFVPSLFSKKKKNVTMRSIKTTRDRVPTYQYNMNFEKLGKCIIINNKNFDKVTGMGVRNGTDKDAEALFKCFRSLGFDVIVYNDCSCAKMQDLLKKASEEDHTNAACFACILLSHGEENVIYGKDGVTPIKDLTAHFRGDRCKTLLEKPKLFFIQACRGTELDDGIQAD
# Caspase-7, sequence (P55210 207-303 limits assumed): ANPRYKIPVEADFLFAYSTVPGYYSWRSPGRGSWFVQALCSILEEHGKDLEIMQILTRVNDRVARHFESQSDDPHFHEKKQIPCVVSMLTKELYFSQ
# Eukaryotic translation initiation factor 4E, sequence (P63073 whole entry, the tested form may be a part): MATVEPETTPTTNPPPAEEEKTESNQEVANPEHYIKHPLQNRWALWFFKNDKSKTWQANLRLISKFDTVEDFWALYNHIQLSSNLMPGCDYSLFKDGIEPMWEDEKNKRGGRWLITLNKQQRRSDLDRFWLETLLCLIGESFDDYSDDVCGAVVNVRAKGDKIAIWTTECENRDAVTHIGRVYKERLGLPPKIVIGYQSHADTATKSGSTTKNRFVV
# Ion channel NompC, sequence (Q7T1G6 whole entry, the tested form may be a part): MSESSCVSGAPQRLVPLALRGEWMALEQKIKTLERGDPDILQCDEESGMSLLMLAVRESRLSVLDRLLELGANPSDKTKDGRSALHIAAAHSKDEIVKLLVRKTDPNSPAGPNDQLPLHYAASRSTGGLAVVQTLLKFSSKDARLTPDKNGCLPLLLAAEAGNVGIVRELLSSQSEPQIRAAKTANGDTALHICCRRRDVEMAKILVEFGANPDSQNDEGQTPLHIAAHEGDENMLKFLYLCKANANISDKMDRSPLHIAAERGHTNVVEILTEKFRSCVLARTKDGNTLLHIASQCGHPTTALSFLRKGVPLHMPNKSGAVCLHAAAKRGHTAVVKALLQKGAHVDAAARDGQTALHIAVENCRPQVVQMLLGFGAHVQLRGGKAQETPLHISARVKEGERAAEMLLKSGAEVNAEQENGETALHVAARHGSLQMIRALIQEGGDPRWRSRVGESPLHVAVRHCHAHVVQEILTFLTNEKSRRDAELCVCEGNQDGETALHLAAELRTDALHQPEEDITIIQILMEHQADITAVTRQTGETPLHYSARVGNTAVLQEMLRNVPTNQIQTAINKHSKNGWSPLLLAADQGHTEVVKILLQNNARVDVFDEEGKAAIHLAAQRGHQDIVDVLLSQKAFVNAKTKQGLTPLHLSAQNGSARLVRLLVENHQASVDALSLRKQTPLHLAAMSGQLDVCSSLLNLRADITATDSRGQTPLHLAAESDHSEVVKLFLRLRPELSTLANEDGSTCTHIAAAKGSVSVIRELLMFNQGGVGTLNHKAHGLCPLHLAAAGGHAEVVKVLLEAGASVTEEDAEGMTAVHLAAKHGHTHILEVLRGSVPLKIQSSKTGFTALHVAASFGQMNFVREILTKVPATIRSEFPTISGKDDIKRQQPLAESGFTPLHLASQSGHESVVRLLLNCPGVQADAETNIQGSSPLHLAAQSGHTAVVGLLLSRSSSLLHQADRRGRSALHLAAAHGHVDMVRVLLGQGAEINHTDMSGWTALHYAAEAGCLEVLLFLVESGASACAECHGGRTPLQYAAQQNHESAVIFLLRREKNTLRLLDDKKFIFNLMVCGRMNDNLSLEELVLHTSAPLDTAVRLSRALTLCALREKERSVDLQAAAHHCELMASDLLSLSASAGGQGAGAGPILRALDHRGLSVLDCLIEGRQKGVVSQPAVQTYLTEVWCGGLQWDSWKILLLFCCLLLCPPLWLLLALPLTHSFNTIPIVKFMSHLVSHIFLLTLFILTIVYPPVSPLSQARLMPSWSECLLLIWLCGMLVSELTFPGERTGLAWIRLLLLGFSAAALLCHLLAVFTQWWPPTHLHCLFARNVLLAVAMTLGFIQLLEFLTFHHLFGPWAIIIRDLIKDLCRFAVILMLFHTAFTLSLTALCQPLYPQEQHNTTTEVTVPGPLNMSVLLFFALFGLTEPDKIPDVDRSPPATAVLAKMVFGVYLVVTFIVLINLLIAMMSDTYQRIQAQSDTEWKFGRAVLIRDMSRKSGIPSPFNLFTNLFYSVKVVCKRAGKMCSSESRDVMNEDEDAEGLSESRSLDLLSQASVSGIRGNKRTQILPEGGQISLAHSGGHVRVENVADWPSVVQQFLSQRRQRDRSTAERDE
# Alkaline phosphatase, placental type, sequence (P05187 whole entry): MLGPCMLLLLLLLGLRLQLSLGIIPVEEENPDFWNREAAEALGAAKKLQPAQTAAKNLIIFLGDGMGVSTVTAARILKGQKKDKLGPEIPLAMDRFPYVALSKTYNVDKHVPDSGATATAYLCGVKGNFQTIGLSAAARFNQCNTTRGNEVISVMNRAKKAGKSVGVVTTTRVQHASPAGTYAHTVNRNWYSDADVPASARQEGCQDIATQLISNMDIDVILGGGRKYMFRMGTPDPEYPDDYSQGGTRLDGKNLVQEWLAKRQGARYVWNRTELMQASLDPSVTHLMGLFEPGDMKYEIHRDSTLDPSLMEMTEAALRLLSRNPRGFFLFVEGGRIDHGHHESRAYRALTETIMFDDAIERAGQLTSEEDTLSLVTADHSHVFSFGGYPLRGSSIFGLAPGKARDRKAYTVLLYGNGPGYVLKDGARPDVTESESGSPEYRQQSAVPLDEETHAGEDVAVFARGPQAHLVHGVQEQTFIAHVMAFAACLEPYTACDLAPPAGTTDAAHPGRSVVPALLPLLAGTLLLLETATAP
# DNA dC->dU-editing enzyme APOBEC-3G, sequence (Q9HC16 whole entry): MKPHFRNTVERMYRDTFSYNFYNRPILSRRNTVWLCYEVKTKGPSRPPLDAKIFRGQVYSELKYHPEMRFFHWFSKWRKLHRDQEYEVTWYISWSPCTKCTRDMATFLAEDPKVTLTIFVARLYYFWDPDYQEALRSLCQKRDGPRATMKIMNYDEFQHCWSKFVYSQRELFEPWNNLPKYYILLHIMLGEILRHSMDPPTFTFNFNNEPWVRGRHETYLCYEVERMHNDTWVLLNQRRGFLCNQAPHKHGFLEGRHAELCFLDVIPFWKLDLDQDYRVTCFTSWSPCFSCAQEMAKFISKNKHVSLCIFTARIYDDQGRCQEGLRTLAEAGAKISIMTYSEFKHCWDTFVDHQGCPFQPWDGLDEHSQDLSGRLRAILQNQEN
# Mannose-6-phosphate isomerase, sequence (P34949 whole entry): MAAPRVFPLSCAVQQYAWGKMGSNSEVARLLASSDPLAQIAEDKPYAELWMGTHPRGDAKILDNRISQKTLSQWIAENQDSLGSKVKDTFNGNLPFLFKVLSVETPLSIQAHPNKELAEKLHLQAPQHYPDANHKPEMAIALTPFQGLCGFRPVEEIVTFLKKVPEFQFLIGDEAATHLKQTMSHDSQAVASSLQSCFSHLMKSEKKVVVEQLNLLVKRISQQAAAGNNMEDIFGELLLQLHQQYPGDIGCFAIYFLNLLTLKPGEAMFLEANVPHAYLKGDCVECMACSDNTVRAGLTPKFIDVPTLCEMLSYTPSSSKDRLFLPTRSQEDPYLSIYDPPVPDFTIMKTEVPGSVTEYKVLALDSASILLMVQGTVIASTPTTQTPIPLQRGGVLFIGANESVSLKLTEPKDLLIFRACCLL
# Microphthalmia-associated transcription factor, sequence (O75030 whole entry): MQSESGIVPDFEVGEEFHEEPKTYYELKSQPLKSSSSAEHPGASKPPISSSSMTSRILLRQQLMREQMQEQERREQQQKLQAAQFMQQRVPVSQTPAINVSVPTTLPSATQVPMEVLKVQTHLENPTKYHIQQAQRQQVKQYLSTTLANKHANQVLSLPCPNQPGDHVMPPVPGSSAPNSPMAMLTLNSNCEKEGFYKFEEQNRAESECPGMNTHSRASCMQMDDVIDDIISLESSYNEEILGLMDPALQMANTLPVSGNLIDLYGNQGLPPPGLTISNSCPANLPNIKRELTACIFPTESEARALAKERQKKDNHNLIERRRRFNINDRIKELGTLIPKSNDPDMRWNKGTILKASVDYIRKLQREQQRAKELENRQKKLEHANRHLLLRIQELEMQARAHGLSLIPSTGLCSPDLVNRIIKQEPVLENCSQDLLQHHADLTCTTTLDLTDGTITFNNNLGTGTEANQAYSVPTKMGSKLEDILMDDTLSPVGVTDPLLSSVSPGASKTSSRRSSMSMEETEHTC
structure (smiles),measurement,setting,value
O=C(Nc1ccccc1Cc1ccccc1)c1ccccc1NS(=O)(=O)c1ccc(Cl)s1,EC50,[1],0.659 µM (active)
same,EC50,[2],> 150 µM (not active)
same,EC50,[3],> 29.9 µM (inactive)
same,IC50,[4],2.17 µM (active)
same,EC50,[5],24.3 µM (not active)
same,EC50,[6],4.09 µM (active)
same,AC50,[7],0.706 µM (active)
same,AC50,[8],8.18 µM (active)
same,AC50,[9],14.7 µM (active)
same,AC50,[10],18.2 µM (active)
Cc1ccc(C(=O)N/N=C\c2ccc([N+](=O)[O-])s2)cn1,CC50,[11],26.2 µM (active)
same,CC50,[12],13.1 µM (active)
same,AC50,[13],2.95 µM (active)
same,IC50,[14],4.87 µM (active)
CCN(CC)c1ccc(NC(=O)c2ccccc2)cc1S(=O)(=O)Nc1ccccc1OC,IC50,[15],30 µM (active)
c1ccc2[nH]c(-c3ccnc4ccccc34)nc2c1,IC50,[16],> 64 µM (inactive)
same,IC50,[17],3.66 µM (active)
COc1cc(C(=O)Oc2ccccc2/C=N/NC(=O)c2ccc(Cl)cc2)cc(OC)c1OC,IC50,[18],2.12 µM (active)
same,EC50,[19],9.29 µM (active)
same,IC50,[20],1.99 µM (active)
same,EC50,[21],1.31 µM (active)
same,EC50,[22],> 350 µM (not active)
same,EC50,[23],> 71.5 µM (inactive)
Cc1ccc(-c2nnc(SCC(=O)c3ccc(O)c(O)c3)n2-c2ccc(C)cc2)cc1,IC50,[24],9.54 µM (active)
same,IC50,[25],> 100 µM (inactive)
COc1ccc(CCNC(=O)CCNC(=O)c2ccc(Br)cc2)cc1OC,IC50,[16],> 64 µM (inactive)
N#C/C(=C\c1ccccn1)c1nc2ccccc2s1,EC50,[3],0.672 µM (active)
same,EC50,[5],> 1.11 µM (not active)
CCCCOn1c(C)c(C(=O)OCC)c2c3nonc3ccc21,EC50,[26],> 85.3 µM (inactive)
same,EC50,[27],> 85.3 µM (inactive)
COC(=O)C(N)Cc1ccc(O)c(O)c1 (centres undefined),IC50,[28],> 50 µM (not active)
same,IC50,[24],8.43 µM (active)
same,IC50,[25],> 100 µM (inactive)
COc1ccccc1NC(=O)COc1ccc(C(=O)NCc2ccccc2)cc1OC,IC50,[29],> 20 µM (inactive)
same,IC50,[30],13 µM (active)
same,IC50,[31],> 20 µM (inactive)
CCN(CC)c1ccc(/C=N/NC(=S)NCc2ccco2)cc1,EC50,[26],> 85.3 µM (inactive)
same,EC50,[27],> 85.3 µM (inactive)
COc1cc(OC)c(-n2c(C)cc(C=O)c2C)cc1Cl,IC50,[32],4.72 µM (active)
